{
  "source": "patent US20070270429A1",
  "about": "“Function Inhibitor of Effector Cell” (priority 2003, published 2007)",
  "test_system": "human CD8-positive T cell",
  "assay": "Allo-reaction growth test (class I-MLR) of human CD8-positive T cell with dendritic cell",
  "format": "cell-based",
  "details": "5 days",
  "description": "After treating the cells with BrdU for a predetermined period of time, the plate was centrifuged (300×g, 10 minutes), and then turned upside down and lightly shaken to remove the labeled medium. The plate was dried (for about 15 minutes) using a hair dryer. A cell fixing and DNA denaturing solution (200 μl, attached to the kit) was added to each well and left alone for 30 minutes. After removing the cell fixing and DNA denaturing solution and further removing water, a peroxidase-labeled anti-BrdU antibody (anti-BrdU-POD reaction solution) (100 μl) (attached to the kit) was added thereto and left alone at room temperature for 90 minutes. The antibody solution was discarded, each well was washed three times with PBS (200 μl), water was discarded, and then the substrate solution (100 μl) (attached to the kit) was added thereto. After carrying out the enzyme reaction for a period of 5 to 30 minutes, 1 N sulfuric acid solution (25 μl) was added thereto and stirred on a shaker. The absorbance of samples was measured by a microplate reader (SPECTRAMAX-PRO) at 450 nm (control wavelength: 690 nm).\nA heparinized blood sample was collected from a human, healthy volunteer, and peripheral blood mononuclear cell (PBMC) was isolated by the density gradient centrifugation described in the above-described (2-1). CD8-positive T cell was isolated from this PBMC by the negative selection method described in the above-described (2-1).\nCD 14-positive cell was obtained by fractionating the PBMC obtained by the above-described method using VarioMACS (Miltenyl Biotec). Specifically, CD14 antigen was labeled with antibody magnetic beads by adding 20 μl of CD14 MicroBeads (Miltenyl Biotec) to 1×10^7 cells of the PBMC, mixing them and incubating at 6 to 12° C. for 15 minutes. The cells were washed once with an MACS buffer (PBS containing 2 mM EDTA and 0.5% bovine serum albumin (BSA)) (20 ml) (attached to the kit) and re-suspended in the MACS buffer (2 ml). […]",
  "data": [
    {"smiles": "CCCCN1C(=O)[C@@H]([C@H](O)C2CCCCC2)NC(=O)C12CCN(Cc1ccc(Cc3ccc(C(=O)O)cc3OC)cc1)CC2", "note": "[Compound (b), 4-[4-({(3R)-1-butyl-3-[(R)-cyclohexyl(hydroxy)methyl]-2,5-dioxo-1,4,9-triazaspiro[5.5]undec-9-yl}methyl)benzyl]-3-methoxybenzoic acid]", "values": [
      {"measurement": "inhibition ratio of allo-reaction growth", "setting": "0.1 μM", "value": 7.8, "unit": "%"},
      {"measurement": "inhibition ratio of allo-reaction growth", "setting": "1 μM", "value": 17.6, "unit": "%"},
      {"measurement": "inhibition ratio of allo-reaction growth", "setting": "10 μM", "value": 44.1, "unit": "%"}
    ]}
  ]
}
